Laboratory results published in patent publication US6914045B2, “Glycopeptide antibiotics” (Wyeth Holdings Corporation, priority 2001, dated 2005).
≈ marks a conversion by molar mass, not a printed value. Values belong to the compound of their own block, whether it stands above or below them.

Assays:
Assay in all cases: in vitro antibacterial evaluation, MIC by broth dilution
Type in all cases: cell-based
Streptococcus sp. = tested on: Streptococcus sp.
Outline: (§1)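 MIC, the lowest antibiotic concentration preventing growth, was read across 64-0.06 μg/mL with 5×10^5 CFU/mL inoculum. Method followed NCCLS M7-A2 broth dilution using Mueller-Hinton II; Gram-positive strains covered recent methicillin-, penicillin- and/or vancomycin-resistant clinical isolates.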

Enterococcus sp. = tested on: Enterococcus sp.
Outline: as §1

Staphylococcus sp. = settings: broth dilution, 18 hours at 35° C.; for MIC Staphylococcus aureus (ATCC 29213): strain ATCC 29213; for MIC Staphylococcus aureus (GC 1131): strain GC 1131; for MIC Staphylococcus aureus (GC 3051): strain GC 3051; for MIC Staphylococcus aureus (GC 3053): strain GC 3053; for MIC Staphylococcus aureus (GC 4541): strain GC 4541; for MIC Staphylococcus aureus (GC 4542): strain GC 4542; for MIC Staphylococcus aureus-SMITH (GC 4543): strain GC 4543; for MIC Staphylococcus aureus (GC 4544): strain GC 4544; for MIC Staphylococcus aureus (GC 4545): strain GC 4545; for MIC Staphylococcus haemolyticus (GC 4546): strain GC 4546; for MIC Coagulase Negative Staphylococcus (GC 4547): strain GC 4547; for MIC Coagulase Negative Staphylococcus (GC 4548): strain GC 4548; for MIC Coagulase Negative Staphylococcus (GC 4549): strain GC 4549; for MIC Coagulase Negative Staphylococcus (GC 4551): strain GC 4551
Outline: as §1

Escherichia coli = settings: 18 hours at 35° C.
Outline: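 MIC is the lowest antibiotic concentration (tested 64-0.06 μg/mL) preventing growth of a 5×10^5 CFU/mL inoculum. Determined by broth dilution in Mueller-Hinton II medium following NCCLS standard M7-A2.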

[1] = broth dilution, 18 hours at 35° C.

MIC Streptococcus agalactiae (GC 4564) (Streptococcus sp.; [1]): >128 µg/mL
MIC Streptococcus pneumoniae (ATCC 6301) (Streptococcus sp.; [1]): 128 µg/mL (≈ 74.7 µM)
MIC Streptococcus pneumoniae (GC 1894) (Streptococcus sp.; [1]): 64 µg/mL (≈ 37.3 µM)
MIC Streptococcus pneumoniae (GC 4565) (Streptococcus sp.; [1]): 128 µg/mL (≈ 74.7 µM)
MIC Streptococcus pyogenes (GC 4563) (Streptococcus sp.; [1]): >128 µg/mL
MIC Streptococcus pneumoniae (ATCC 6301) (Streptococcus sp.; broth dilution, 18 hours at 35° C.; strain ATCC 6301): 128 µg/mL (≈ 74.7 µM)
MIC Streptococcus pneumoniae (GC 1894) (Streptococcus sp.; broth dilution, 18 hours at 35° C.; strain GC 1894): 64 µg/mL (≈ 37.3 µM)
MIC Streptococcus pyogenes (GC 4563) (Streptococcus sp.; broth dilution, 18 hours at 35° C.; strain GC 4563): >128 µg/mL
MIC Streptococcus agalactiae (GC 4564) (Streptococcus sp.; broth dilution, 18 hours at 35° C.; strain GC 4564): >128 µg/mL
MIC Streptococcus pneumoniae (GC 4565) (Streptococcus sp.; broth dilution, 18 hours at 35° C.; strain GC 4565): 128 µg/mL (≈ 74.7 µM)
MIC Enterococcus avium (GC 4558) (Enterococcus sp.; Enterococcus avium (GC 4558); broth dilution, 18 hours at 35° C.): 128 µg/mL (≈ 74.7 µM)
MIC Enterococcus faecalis (ATCC 29212) (Enterococcus sp.; Enterococcus faecalis (ATCC 29212); broth dilution, 18 hours at 35° C.): >128 µg/mL
MIC Enterococcus faecalis (GC 4552) (Enterococcus sp.; Enterococcus faecalis (GC 4552); broth dilution, 18 hours at 35° C.): >128 µg/mL
MIC Enterococcus faecalis (GC 4553) (Enterococcus sp.; Enterococcus faecalis (GC 4553); broth dilution, 18 hours at 35° C.): >128 µg/mL
MIC Enterococcus faecalis (GC 4554) (Enterococcus sp.; Enterococcus faecalis (GC 4554); broth dilution, 18 hours at 35° C.): >128 µg/mL
MIC Enterococcus faecalis (GC 6189) (Enterococcus sp.; Enterococcus faecalis (GC 6189); broth dilution, 18 hours at 35° C.): >128 µg/mL
MIC Enterococcus faecium (GC 2243) (Enterococcus sp.; Enterococcus faecium (GC 2243); broth dilution, 18 hours at 35° C.): >128 µg/mL
MIC Enterococcus faecium (GC 4556) (Enterococcus sp.; Enterococcus faecium (GC 4556); broth dilution, 18 hours at 35° C.): >128 µg/mL
MIC Enterococcus faecium (GC 4557) (Enterococcus sp.; Enterococcus faecium (GC 4557); broth dilution, 18 hours at 35° C.): 128 µg/mL (≈ 74.7 µM)
MIC Enterococcus avium (GC 4558) (Enterococcus sp.; [1]): 128 µg/mL (≈ 74.7 µM)
MIC Enterococcus faecalis (ATCC 29212) (Enterococcus sp.; [1]): >128 µg/mL
MIC Enterococcus faecalis (GC 2242) (Enterococcus sp.; [1]): >128 µg/mL
MIC Enterococcus faecalis (GC 2691) (Enterococcus sp.; [1]): >128 µg/mL
MIC Enterococcus faecalis (GC 3059) (Enterococcus sp.; [1]): >128 µg/mL
MIC Enterococcus faecalis (GC 4552) (Enterococcus sp.; [1]): >128 µg/mL
MIC Enterococcus faecalis (GC 4553) (Enterococcus sp.; [1]): >128 µg/mL
MIC Enterococcus faecalis (GC 4554) (Enterococcus sp.; [1]): >128 µg/mL
MIC Enterococcus faecalis (GC 6189) (Enterococcus sp.; [1]): >128 µg/mL
MIC Enterococcus faecium (GC 2243) (Enterococcus sp.; [1]): >128 µg/mL
MIC Enterococcus faecium (GC 4556) (Enterococcus sp.; [1]): >128 µg/mL
MIC Enterococcus faecium (GC 4557) (Enterococcus sp.; [1]): 128 µg/mL (≈ 74.7 µM)
MIC Enterococcus faecalis (GC 2242) (Enterococcus sp.; broth dilution, 18 hours at 35° C.; strain GC 2242): >128 µg/mL
MIC Enterococcus faecalis (GC 2691) (Enterococcus sp.; broth dilution, 18 hours at 35° C.; strain GC 2691): >128 µg/mL
MIC Enterococcus faecalis (GC 3059) (Enterococcus sp.; broth dilution, 18 hours at 35° C.; strain GC 3059): >128 µg/mL
MIC Staphylococcus aureus (ATCC 29213) (Staphylococcus sp.): >128 µg/mL
MIC Staphylococcus aureus (GC 1131) (Staphylococcus sp.): >128 µg/mL
MIC Staphylococcus aureus (GC 3051) (Staphylococcus sp.): >128 µg/mL
MIC Staphylococcus aureus (GC 3053) (Staphylococcus sp.): >128 µg/mL
MIC Staphylococcus aureus (GC 4541) (Staphylococcus sp.): >128 µg/mL
MIC Staphylococcus aureus (GC 4542) (Staphylococcus sp.): >128 µg/mL
MIC Staphylococcus aureus-SMITH (GC 4543) (Staphylococcus sp.): >128 µg/mL
MIC Staphylococcus aureus (GC 4544) (Staphylococcus sp.): >128 µg/mL
MIC Staphylococcus aureus (GC 4545) (Staphylococcus sp.): >128 µg/mL
MIC Coagulase Negative Staphylococcus (GC 4547) (Staphylococcus sp.): >128 µg/mL
MIC Coagulase Negative Staphylococcus (GC 4548) (Staphylococcus sp.): >128 µg/mL
MIC Coagulase Negative Staphylococcus (GC 4549) (Staphylococcus sp.): >128 µg/mL
MIC Coagulase Negative Staphylococcus (GC 4551) (Staphylococcus sp.): >128 µg/mL
MIC Coagulase Negative Staphylococcus (GC 6257) (Staphylococcus sp.; strain GC 6257): >128 µg/mL
MIC Escherichia coli (ATCC 25922) (Escherichia coli): >128 µg/mL
MIC Escherichia coli (GC 4559) (Escherichia coli): >128 µg/mL
MIC Escherichia coli (GC 4560) (Escherichia coli): 16 µg/mL (≈ 9.34 µM)
SMILES: CC(c1ccccc1)C1NC(=O)CNC(=O)C(CO)NC(=O)C(CC2CN(Cc3ccccc3)C(=NCc3ccccc3)N2C2OC(CO)C(O)C(O)C2O)NC(=O)C(CC2CN(Cc3ccccc3)C(=NCc3ccccc3)N2Cc2ccccc2)NC(=O)C(Cc2ccc(OC3OC(CO)C(OC4OC(CO)C(O)C(O)C4O)C(O)C3O)cc2)NC1=O (stereo not drawn) [Example 73, Cyclo[3-[1,3-benzyl-2-(benzylimino)imidazolidin-4-yl]alanyl-3-[1-benzyl-2-(benzylimino)-3-hexopyranosylimidazolidin-4-yl]alanylserylglycyl-β-methylphenylalanyl-O-(4-O-hexopyranosylhexopyranosyl)tyrosyl]]
MIC Staphylococcus haemolyticus (GC 4546) (Staphylococcus sp.): >128 µg/mL

MIC Streptococcus pneumoniae (ATCC 6301) (Streptococcus sp.; strain ATCC 6301; broth dilution, 18 hours at 35° C.): 4 µg/mL (≈ 3.35 µM)
MIC Streptococcus pneumoniae (GC 1894) (Streptococcus sp.; strain GC 1894; broth dilution, 18 hours at 35° C.): 2 µg/mL (≈ 1.67 µM)
MIC Streptococcus pyogenes (GC 4563) (Streptococcus sp.; strain GC 4563; broth dilution, 18 hours at 35° C.): 1 µg/mL (≈ 0.837 µM)
MIC Streptococcus agalactiae (GC 4564) (Streptococcus sp.; strain GC 4564; broth dilution, 18 hours at 35° C.): 2 µg/mL (≈ 1.67 µM)
MIC Streptococcus pneumoniae (GC 4565) (Streptococcus sp.; strain GC 4565; broth dilution, 18 hours at 35° C.): 8 µg/mL (≈ 6.7 µM)
MIC Enterococcus faecalis (ATCC 29212) (Enterococcus sp.; strain ATCC 29212; broth dilution, 18 hours at 35° C.): 8 µg/mL (≈ 6.7 µM)
MIC Enterococcus faecalis (GC 2242) (Enterococcus sp.; strain GC 2242; broth dilution, 18 hours at 35° C.): 4 µg/mL (≈ 3.35 µM)
MIC Enterococcus faecium (GC 2243) (Enterococcus sp.; strain GC 2243; broth dilution, 18 hours at 35° C.): 4 µg/mL (≈ 3.35 µM)
MIC Enterococcus faecalis (GC 2691) (Enterococcus sp.; strain GC 2691; broth dilution, 18 hours at 35° C.): 32 µg/mL (≈ 26.8 µM)
MIC Enterococcus faecalis (GC 3059) (Enterococcus sp.; strain GC 3059; broth dilution, 18 hours at 35° C.): 32 µg/mL (≈ 26.8 µM)
MIC Enterococcus faecalis (GC 4552) (Enterococcus sp.; strain GC 4552; broth dilution, 18 hours at 35° C.): 16 µg/mL (≈ 13.4 µM)
MIC Enterococcus faecalis (GC 4553) (Enterococcus sp.; strain GC 4553; broth dilution, 18 hours at 35° C.): 4 µg/mL (≈ 3.35 µM)
MIC Enterococcus faecalis (GC 4554) (Enterococcus sp.; strain GC 4554; broth dilution, 18 hours at 35° C.): 64 µg/mL (≈ 53.6 µM)
MIC Enterococcus faecium (GC 4556) (Enterococcus sp.; strain GC 4556; broth dilution, 18 hours at 35° C.): 8 µg/mL (≈ 6.7 µM)
MIC Enterococcus faecium (GC 4557) (Enterococcus sp.; strain GC 4557; broth dilution, 18 hours at 35° C.): 4 µg/mL (≈ 3.35 µM)
MIC Enterococcus avium (GC 4558) (Enterococcus sp.; strain GC 4558; broth dilution, 18 hours at 35° C.): 2 µg/mL (≈ 1.67 µM)
MIC Enterococcus faecalis (GC 6189) (Enterococcus sp.; strain GC 6189; broth dilution, 18 hours at 35° C.): 32 µg/mL (≈ 26.8 µM)
MIC Staphylococcus aureus (ATCC 29213) (Staphylococcus sp.): 16 µg/mL (≈ 13.4 µM)
MIC Staphylococcus aureus (GC 1131) (Staphylococcus sp.): 32 µg/mL (≈ 26.8 µM)
MIC Staphylococcus aureus (GC 3051) (Staphylococcus sp.): 32 µg/mL (≈ 26.8 µM)
MIC Staphylococcus aureus (GC 3053) (Staphylococcus sp.): 16 µg/mL (≈ 13.4 µM)
MIC Staphylococcus aureus (GC 4541) (Staphylococcus sp.): 16 µg/mL (≈ 13.4 µM)
MIC Staphylococcus aureus (GC 4542) (Staphylococcus sp.): 16 µg/mL (≈ 13.4 µM)
MIC Staphylococcus aureus-SMITH (GC 4543) (Staphylococcus sp.): 8 µg/mL (≈ 6.7 µM)
MIC Staphylococcus aureus (GC 4544) (Staphylococcus sp.): 16 µg/mL (≈ 13.4 µM)
MIC Staphylococcus aureus (GC 4545) (Staphylococcus sp.): 16 µg/mL (≈ 13.4 µM)
MIC Coagulase Negative Staphylococcus (GC 4547) (Staphylococcus sp.): 16 µg/mL (≈ 13.4 µM)
MIC Coagulase Negative Staphylococcus (GC 4548) (Staphylococcus sp.): 2 µg/mL (≈ 1.67 µM)
MIC Coagulase Negative Staphylococcus (GC 4549) (Staphylococcus sp.): 0.5 µg/mL (≈ 0.419 µM)
MIC Coagulase Negative Staphylococcus (GC 4551) (Staphylococcus sp.): 8 µg/mL (≈ 6.7 µM)
MIC Escherichia coli (ATCC 25922) (Escherichia coli; strain ATCC 25922, broth dilution): >64 µg/mL
MIC Escherichia coli (GC 4559) (Escherichia coli; strain GC 4559, broth dilution): >64 µg/mL
MIC Escherichia coli (GC 4560) (Escherichia coli; strain GC 4560, broth dilution): 32 µg/mL (≈ 26.8 µM)
SMILES: CC(c1ccccc1)C1NC(=O)CNC(=O)C(CO)NC(=O)C(C(O)C2CNC(=N)N2C2OC(CO)C(O)C(O)C2O)NC(=O)C(C(O)C2CNC(=N)N2)NC(=O)C(Cc2ccc3oc(SCc4ccc(-c5ccccc5)cc4)nc3c2)NC1=O (centres unmarked) [Example 47]
MIC Staphylococcus haemolyticus (GC 4546) (Staphylococcus sp.): 8 µg/mL (≈ 6.7 µM)
